Test results as given in patent US11718612B2, “Inhibitors of receptor interacting protein kinase I for the treatment of disease” (Board of Regents, The University of Texas System, priority 2019, dated 2023).

What was measured:
U937 cells = test: Human U937 cellular necroptosis assay; format: cell-based; conditions: U-937; U937 cells stimulated with 25 ng/mL human TNFalpha and 25 μM z-VAD-FMK; 22 hr; Cell Titer-Glo viability
Description: Human U937 Cellular Necroptosis Assay
The human monocytic cell line U937 (CRL-1593.2) may be purchased from ATCC. The cells are routinely maintained in RPMI-1640 Medium (Gibco, Catalog #11875-093) supplemented with 10% heat inactivated fetal bovine serum (Gibco, Catalog #16140-071), 100 units/mL penicillin and 100 μg/mL streptomycin (Gibco, Catalog #15140-122), in a humidified incubator (37° C., 5% CO2). For the assay, cells are resuspended in RPMI-1640 phenol red free Media (Gibco, Catalog #11835-030) supplemented with 10% fetal bovine serum (Sigma, Catalog #F2442), 100 units/mL penicillin and 100 ug/mL streptomycin. […] Stock solutions of the test compounds are prepared in 100% DMSO (Sigma, Catalog #D2650) and serially diluted 1:3 using 100% DMSO. Compounds are additionally diluted 1:40 in assay medium, and 10 μL/well was transferred to the plate. Following the compound addition, the plate is incubated at 37° C. and 5% CO2 for 22 hr. After 22 hr, viability is assessed with the addition of 20 μL of Cell Titer-Glo 2.0 (Promega, Catalog #G9243). The tissue culture plate is shaken on an orbital shaker at 300 RPM for 15 minutes at room temperature in the dark. Luminescence is measured using a PerkinElmer Envision™ plate reader. IC50 values are calculated using a four-parameter logistic curve fit using Genedata Screener software.

RIPK1 = RIPK1 (Homo sapiens (Human), UniProt Q13546); test: ADP-Glo kinase assay, RIPK1 activity; format: biochemical; conditions: 5 nM RIPK1, 50 μM ATP, 6 hr reaction
Sequence of RIPK1 (Q13546 1-327): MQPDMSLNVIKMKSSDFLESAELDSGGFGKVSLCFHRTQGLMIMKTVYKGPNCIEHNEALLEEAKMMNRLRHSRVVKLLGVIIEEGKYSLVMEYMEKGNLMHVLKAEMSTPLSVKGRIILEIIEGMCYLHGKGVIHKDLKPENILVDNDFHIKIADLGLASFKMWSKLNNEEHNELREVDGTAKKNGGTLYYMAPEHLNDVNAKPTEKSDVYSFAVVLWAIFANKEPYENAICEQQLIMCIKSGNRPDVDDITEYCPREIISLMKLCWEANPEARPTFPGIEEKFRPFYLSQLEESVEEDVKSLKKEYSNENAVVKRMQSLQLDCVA
Description: In order to measure RIPK1 activity the ADP-Glo kinase assay (Promega, Catalog #V7002) was used to measure the conversion of ATP to ADP. This enzymatic assay was performed in a 384-well white, Optiplate (Perkin Elmer, Catalog #6007299) with assay buffer consisting of 50 mM HEPES pH 7.5 (Gibco, Catalog #15630-080), 50 mM NaCl (Teknova, Catalog #S0252), 30 mM MgCl2 (Ambion, Catalog #AM9530G), 1 mM DTT (Santa Cruz Biotechnology, Catalog #sc-29089), 0.05% BSA (Sigma, Catalog #A3059-50G) and 0.02% CHAPS (Sigma, Catalog #C5070-5G). Stock solutions of the test compounds were prepared in 100% DMSO (Sigma, Catalog #D2650) and serially diluted 1:3 using 100% DMSO. Compounds were additionally diluted 1:40 in assay buffer, and 2 μL/well were transferred to the assay plate. 4 μL/well (final concentration of 5 nM) of RIPK1 protein (SignalChem, Catalog #R07-11G-05) diluted in assay buffer and added to the assay plate followed by a 10 minute preincutation at room temperature. 4 μL/well of ATP (Promega, Catalog #V7002) (final concentration of 50 μM) diluted in assay buffer were then added to the assay plate followed by a 6 hr reaction time. Final concentrations of RIPK1 and ATP refer to a 10 μL volume. Luminescence was measured using a BioTek Synergy™ NEO plate reader. IC50 values were calculated using a four-parameter logistic curve fit using Genedata Screener software.

IC50 (RIPK1) [nM]	Compound	IC50 (U937 cells) [nM]
17.4	O=C1c2nn(Cc3ccccc3)c(Cl)c2CCN1c1cccc(Cl)c1F [Example 2, 2-Benzyl-3-chloro-6-(3-chloro-2-fluoro-phenyl)-4,5-dihydropyrazolo[3,4-c]pyridin-7-one]	71.2
111	O=C1c2nn(Cc3cc(F)cc(F)c3)c(Cl)c2CCN1c1cccc(Cl)c1F [Example 3, 3-Chloro-6-(3-chloro-2-fluorophenyl)-2-(3,5-difluorobenzyl)-5,6-dihydro-2H-pyrazolo[3,4-c]pyridin-7(4H)-one]	189
31200	O=C(Nc1cccc(Cl)c1F)c1cc(O)n(Cc2cnccn2)n1 [Example 8, N-(3-chloro-2-fluoro-phenyl)-5-hydroxy-1-(pyrazin-2-ylmethyl)pyrazole-3-carboxamide]	–
6960	O=C(Nc1cccc(Cl)c1F)c1nc(Cc2ccccc2)c[nH]1 [Example 14, 4-Benzyl-N-(3-chloro-2-fluoro-phenyl)-1H-imidazole-2-carboxamide]	–
3150	O=C1c2nc(Cc3ccccc3)cn2CCN1c1cccc(Cl)c1F [Example 15, 2-Benzyl-7-(3-chloro-2-fluoro-phenyl)-5,6-dihydroimidazo[1,2-a]pyrazin-8-one]	–
123	O=C1c2nc(Cc3ccccc3)c(Cl)n2CCN1c1cccc(Cl)c1F [Example 16, 2-Benzyl-3-chloro-7-(3-chloro-2-fluoro-phenyl)-5,6-dihydroimidazo[1,2-a]pyrazin-8-one]	–
18700	O=C(Nc1cccc(Cl)c1F)c1nc(Cc2ccccc2)c(Cl)[nH]1 [Example 18, 4-Benzyl-5-chloro-N-(3-chloro-2-fluoro-phenyl)-1H-imidazole-2-carboxamide]	–
9250	COc1ccc(N(C)C(=O)c2ncn(Cc3ccccc3)n2)c(F)c1Cl [Example 41, 1-benzyl-N-(3-chloro-2-fluoro-4-methoxy-phenyl)-N-methyl-1H-1,2,4-triazole-3-carboxamide]	–
318	O=C1c2nc(Cc3ccccc3)c(Cl)n2CCN1c1cccc(Cl)c1 [Example 42, 2-benzyl-3-chloro-7-(3-chlorophenyl)-6,7-dihydroimidazo[1,2-a]pyrazin-8(5H)-one]	–
13700	O=C1c2nc(Cc3ccccc3)cn2CCN1c1cccc(Cl)c1 [Example 43, 2-benzyl-7-(3-chlorophenyl)-6,7-dihydroimidazo[1,2-a]pyrazin-8(5H)-one]	–
> 33000	Cn1cc(C(=O)Nc2cccc(Cl)c2F)nc1Cc1ccccc1 [Example 44, 2-benzyl-N-(3-chloro-2-fluorophenyl)-1-methyl-1H-imidazole-4-carboxamide]	–
48600	O=C(Nc1cccc(Cl)c1F)c1c[nH]c(Cc2ccccc2)n1 [Example 45, 2-benzyl-N-(3-chloro-2-fluorophenyl)-1H-imidazole-4-carboxamide]	–
2470	O=C1c2cc(Cc3ccccc3)ccc2CN1c1ccccc1F [Example 48, 6-Benzyl-2-(2-fluorophenyl)isoindolin-1-one]	–
3680	O=C1c2nc(Cc3ccccc3)ccc2CN1c1ccccc1F [Example 49, 2-Benzyl-6-(2-fluorophenyl)-5,6-dihydro-7H-pyrrolo[3,4-b]pyridin-7-one]	–
–	CC(=O)NCc1cc(Cl)c(F)c(N2CCc3c(nn(Cc4cccc(F)c4F)c3Cl)C2=O)c1 [Example 85, N-(3-chloro-5-(3-chloro-2-(2,3-difluorobenzyl)-7-oxo-2,4,5,7-tetrahydro-6H-pyrazolo[3,4-c]pyridin-6-yl)-4-fluorobenzyl)acetamide]	1040
–	Cc1cnc(Cn2cnc(C(=O)Nc3cccc(Cl)c3F)n2)cn1 [Example 91, N-(3-chloro-2-fluorophenyl)-1-((5-methylpyrazin-2-yl)methyl)-1H-1,2,4-triazole-3-carboxamide]	2560
–	NCc1cc(Cl)c(F)c(NC(=O)c2ncn(Cc3ccccc3)n2)c1 [Example 92, N-(5-(aminomethyl)-3-chloro-2-fluorophenyl)-1-benzyl-1H-1,2,4-triazole-3-carboxamide]	1650
–	CS(=O)(=O)NCc1cc(Cl)c(F)c(NC(=O)c2ncn(Cc3ccccc3)n2)c1 [Example 93, 1-Benzyl-N-(3-chloro-2-fluoro-5-(methylsulfonamidomethyl)phenyl)-1H-1,2,4-triazole-3-carboxamide]	1500
–	O=C(Nc1cc(CO)cc(Cl)c1F)c1ncn(Cc2ccccc2)n1 [Example 94, 1-Benzyl-N-(3-chloro-2-fluoro-5-(hydroxymethyl)phenyl)-1H-1,2,4-triazole-3-carboxamide]	797
–	COCCOCc1cc(Cl)c(F)c(NC(=O)c2ncn(Cc3ccccc3)n2)c1 [Example 95]	529
–	N#CCc1cc(Cl)c(F)c(NC(=O)c2ncn(Cc3ccccc3)n2)c1 [Example 96, 1-Benzyl-N-(3-chloro-5-(cyanomethyl)-2-fluorophenyl)-1H-1,2,4-triazole-3-carboxamide]	347
–	O=C(Nc1cc(Cn2ccnc2)cc(Cl)c1F)c1ncn(Cc2ccccc2)n1 [Example 97, N-(5-((1H-imidazol-1-yl)methyl)-3-chloro-2-fluorophenyl)-1-benzyl-1H-1,2,4-triazole-3-carboxamide]	1180
–	O=C(Nc1cc(Cn2cnc3ccccc32)cc(Cl)c1F)c1ncn(Cc2ccccc2)n1 [Example 98, N-(5-((1H-benzo[d]imidazol-1-yl)methyl)-3-chloro-2-fluorophenyl)-1-benzyl-1H-1,2,4-triazole-3-carboxamide]	3860
–	O=C(Nc1cc(Cn2cccn2)cc(Cl)c1F)c1ncn(Cc2ccccc2)n1 [Example 99, N-(5-((1H-pyrazol-1-yl)methyl)-3-chloro-2-fluorophenyl)-1-benzyl-1H-1,2,4-triazole-3-carboxamide]	2540
83.9	O=C(Nc1cccc(Cl)c1F)c1ncn(Cc2cncc(F)c2)n1 [Example 103, N-(3-chloro-2-fluorophenyl)-1-((5-fluoropyridin-3-yl)methyl)-1H-1,2,4-triazole-3-carboxamide]	–

Compound	IC50 (RIPK1) [nM]	IC50 (U937 cells) [nM]
Cc1cc(C(=O)Nc2cccc(Cl)c2F)nn1Cc1ccccc1 [Example 5, 1-benzyl-N-(3-chloro-2-fluoro-phenyl)-5-methyl-pyrazole-3-carboxamide]	14500	–
Cc1c(F)c(C(=O)Nc2cccc(Cl)c2F)nn1Cc1ccccc1 [Example 6, 1-Benzyl-N-(3-chloro-2-fluorophenyl)-4-fluoro-5-methyl-1H-pyrazole-3-carboxamide]	920	–
O=C(Nc1cccc(Cl)c1F)c1ccn(Cc2ccccc2)n1 [Example 7, 1-Benzyl-N-(3-chloro-2-fluorophenyl)-1H-pyrazole-3-carboxamide]	12100	–
Cc1nc(C(=O)Nc2cccc(Cl)c2F)nn1Cc1cccc(C#N)c1 [Example 34, N-(3-chloro-2-fluoro-phenyl)-1-(3-cyano-benzyl)-5-methyl-1H-1,2,4-triazole-3-carboxamide]	472	–
O=C(Nc1ccc(Cl)c(Cl)c1F)c1ncn(Cc2ccccc2)n1 [Example 37, 1-benzyl-N-(3,4-dichloro-2-fluoro-phenyl)-1H-1,2,4-triazole-3-carboxamide]	1100	–
O=C(Nc1cc(C(F)(F)F)cc(Cl)c1F)c1ncn(Cc2ccccc2)n1 [Example 38, 1-benzyl-N-(3-chloro-2-fluoro-5-(trifluoro-methyl)phenyl)-1H-1,2,4-triazole-3-carboxamide]	1300	–
N#Cc1ccc(NC(=O)c2ncn(Cc3ccccc3)n2)c(F)c1Cl [Example 39, 1-benzyl-N-(3-chloro-4-cyano-2-fluorophenyl)-1H-1,2,4-triazole-3-carboxamide]	1410	–
O=C(Nc1ccc(Br)c(Cl)c1F)c1ncn(Cc2ccccc2)n1 [Example 40, 1-benzyl-N-(4-bromo-3-chloro-2-fluoro-phenyl)-1H-1,2,4-triazole-3-carboxamide]	1650	–
Cc1cc(NC(=O)c2ncn(Cc3ccccc3)n2)ccc1OC(F)(F)F [Example 53, 1-benzyl-N-(3-methyl-4-(trifluoromethoxy)-phenyl)-1H-1,2,4-triazole-3-carboxamide]	4910	–
